Results from US11660285B2, “Triptolide acrylate, preparation method therefor and use thereof” (GUANGDONG PROVINCIAL HOSPITAL OF TCM, priority 2019, dated 2023).

Experiments:
[1] = test system: HepG2 subcutaneous implanted tumor (HepG2-Luc); experiment: Inhibition experiment on HepG2 subcutaneous implanted tumor in nude mice; format: in vivo
Description: 2.1 Establishment of Animal Models
Establishment of HepG2-Luc cell line stably expressing luciferase: HepG2 cells in the logarithmic growth phase were taken and placed into a 24-well plate at 1×10^5/well, and cultured overnight to make the cells fully adherent. An original medium was replaced with 2 mL of fresh medium containing 6 μg/mL polybrene, about 1×10^5 transfection units of recombinant lentiviral particles stably expressing luciferase were added, and after incubation was performed for 4 h at 37° C., 2 mL of fresh medium was added to dilute the polybrene. The culture was continued, and a virus-containing medium was replaced with a fresh medium. The culture was continued, a medium containing puromycin was replaced for resistance screening, drug-resistant clones were picked and screened for two weeks, and finally, a cell line HepG2-Luc stably expressing luciferase was obtained.
Construction of bear mice by HepG2-Luc cell line: the cryopreserved HepG2-Luc cells were recovered to a 100 cm^2 culture flask, cultured in vitro to the logarithmic growth phase and digested with 0.25% trypsin containing EDTA, the cells were collected and centrifuged at 1000 rpm for 3 min at a room temperature, the supernatant was discarded, the cells were washed with a serum-free DMEM medium, and the cell viability was detected by a trypan blue exclusion assay (only if the proportion of viable cells exceeded 95%, the experimental requirements were met). A small amount of the serum-free DMEM medium was added to resuspend the cells, and the cells were counted. […]
Detection of tumor growth by animal in-vivo imaging system: each nude mouse was intraperitoneally injected with 150 μL of 30 mg/kg […] substrate and observed for 15 min, the nude mouse was anesthetized with diethyl ether in an induction box for 5 min, the anesthetized nude mouse was quickly transferred into an observation box, the head of the nude mouse was aligned and fixed in a conical nasal plug, parameters were set for fluorescence imaging (if there was tumor growth, fluorescence signals with different intensities can be detected at the corresponding positions), after the imaging, the nude mouse was transferred into the induction box again, and an oxygen valve was turned on to revive the nude mouse.
18 random numbers were generated by Excel software, the random numbers were corresponding to the numbers of the nude mice, and the nude mice were equally divided into model groups according to the size of the random numbers, namely a low-dose group (100 μg/kg), a middle-dose group (200 μg/kg) and a high-dose group (400 μg/kg). After random grouping, the nude mice were weighed and the tumor volume was measured. […]

p53 = experiment: Western blot of tumor tissue, p53; format: in vivo, nude mice; conditions: FIG. 7
Description: (§1) After the tumor tissue was thawed on ice, 50 mg of tumor tissue was taken into a tissue homogenization tube, and 500 μL of tissue lysate containing protease inhibitors and phosphatase inhibitors was added (usage of Roche brand tablets: 1 tablet/10 mL). After high-speed homogenization, centrifugation was performed at 12,000 rpm/min for 15 min, the supernatant was taken, and the protein concentration of the sample was measured by a BCA method. After the concentration of each sample was adjusted to the same, a protein loading buffer (5× Loading buffer) was added, denaturation was performed at 100° C. for 10 min, and preservation was performed at −80° C.
(§2) An appropriate brand of 10% pre-mixed polyacrylamide gel preparation solution was selected, and then, the gel (including separating gel and stacking gel) used in the experiment was prepared according to the instructions for use, which takes about 2 h. In the process of waiting for gel solidification, an SDS-PAGE gel electrophoresis solution was prepared in advance, the prepared gel was put in an electrophoresis tank, then the electrophoresis solution was added, and 10-30 μL of sample was added to each well of loading slot. After the sample runs through the stacking gel at a low pressure of 80 V, the voltage was adjusted to 100 V to make the sample run through the entire block of gel, so as to complete the SDS-PAGE gel electrophoresis operation. Secondly, a membrane transfer operation was performed (a PVDF membrane was pre-wetted in methanol for 5 min in advance), and membrane transfer conditions were: 300 mA, 120-150 min (corresponding to the time selection of the dividing line with a molecular weight of 100 kDa, wherein the selected membrane transfer time of the separated protein with a molecular weight less than 100 kDa was 120 min, and the selected membrane transfer time of the separated protein with a molecular weight greater than 100 kDa was 150 min). […] An ECL luminescent solution was used as a substrate to expose the target band, and the results were analyzed, recorded and counted.

caspase-8 = experiment: Western blot of tumor tissue, caspase-8; format: in vivo, nude mice; conditions: FIG. 7
Description: as §1, §2

caspase-3 [2] = experiment: Western blot of tumor tissue, caspase-3; format: in vivo, nude mice; conditions: FIG. 7
Description: as §1, §2

LO2 cells = experiment: Cell toxicity experiment (LDH activity of culture supernatant); format: cell-based; conditions: normal liver cells, 0, 10, 50 and 100 nM, 24 h; FIG. 8
Description: 2.1 Cell Toxicity Experiment
Logarithmically growing LO2 cells were taken and inoculated in a 96-well plate at 1×10^4 cells per well. The cells treated with drugs with final concentrations of 0, 10, 50 and 100 nM were used respectively, the culture supernatant was collected after 24 h, and the LDH activity of the culture supernatant was detected by the Roche biochemical analyzer.

HepG2 liver cancer cells = experiment: Cell proliferation by MTT method, HepG2; format: cell-based; conditions: HepG2, 10, 25, 50, 100 nM, 24 h, FIG. 9
Description: (§3) 2.2 Detection of Cell Proliferation by MMT Method
(§4) When the liver cancer cells grew to the logarithmic phase, the single cell suspension was inoculated in a 96-well plate at 1×10^4 cells per well. A blank group was a DMEM medium containing 10% fetal bovine serum, a control group was a solvent-added control (DMSO) cell group, and an experimental group was a cell group treated with drugs with different final concentrations (10, 25, 50, 100 nM). After 24 h of treatment, the medium supernatant was carefully aspirated, and 100 μL of MTT solution with a final concentration of […] diluted with the medium was added to each well. After the cells were cultured for 4 h, the medium was discarded, 150 μL of DMSO solution was added to each well, and shaking was performed at a low speed on the shaker for 10 min in the dark. After the crystals were fully dissolved, the absorbance (A) of each well was detected at 490 nm with the microplate reader. Cell proliferation inhibition rate=[(control group A450-blank group A450)−(experimental group A450−blank group A450)/(control group A450−blank group A450)]×100%.

Hep3B liver cancer cells [3] = experiment: Cell proliferation by MTT method, Hep3B; format: cell-based; conditions: Hep3B, 10, 25, 50, 100 nM, 24 h, FIG. 9
Description: as §3, §4

[4] = test system: SMMC-7721 liver cancer cells; experiment: Cell proliferation by MTT method, SMMC-7721; format: cell-based; conditions: SMMC-7721, 10, 25, 50, 100 nM, 24 h, FIG. 9
Description: as §3, §4

[5] = test system: BEL-7402 liver cancer cells; experiment: Cell proliferation by MTT method, BEL-7402; format: cell-based; conditions: BEL-7402, 10, 25, 50, 100 nM, 24 h, FIG. 9
Description: as §3, §4

Hep3B liver cancer cells [6] = experiment: Cell apoptosis by flow cytometry, Hep3B; format: cell-based; conditions: Hep3B, 0, 50 and 100 nM, 24 h, FIG. 10 A
Description: (§5) 2.3 Detection of Cell Apoptosis by Flow Cytometry
(§6) Liver cancer cells in the logarithmic growth phase were taken and inoculated in a 12-well plate at 5×10^5 cells per well. The cells treated with triptolide acrylate (hereinafter referred to as TPO) and triptolide triol (hereinafter referred to as TP-3-OH) with final concentrations of 0, 50 and 100 nM were used. After 24 h of treatment, the cells were digested and collected with 0.25% EDTA-free pancreatin, washed twice with pre-cooled PBS, and resuspended with 300 μL 1× Binding Buffer. 5 μL FITC Annexin V and 5 μL PI were added to each tube of cell suspension and incubated at a room temperature for 5 min in the dark, and the flow cytometry was used for detection within 1 h.

[7] = test system: BEL-7402 liver cancer cells; experiment: Cell apoptosis by flow cytometry, BEL-7402; format: cell-based; conditions: BEL-7402, 0, 50 and 100 nM, 24 h, FIG. 10 A
Description: as §5, §6

Caspase-3 [8] = experiment: Apoptosis-related proteins by western blot, Caspase-3 in BEL-7402 cells; format: cell-based; conditions: BEL-7402 cells, 0, 50 and 100 nM, 24 h, FIG. 10 B
Description: (§7) 2.4 Detection of Apoptosis-Related Proteins by Western Blot
(§8) BEL-7402 cells in the logarithmic growth phase were taken and inoculated in a 12-well plate at 5×10^5 cells per well. The cells treated with TPO with final concentrations of 0, 50 and 100 nM were used. After 24 h of treatment, the cells were collected, then lysate was added, and total proteins were extracted after sufficient lysis on ice. After the protein concentration was measured by a BCA method, the Loading buffer was added and boiled at 100° C. for 10 min to fully denature the proteins. The denatured sample was subjected to SDS-PAGE gel electrophoresis and electrically transferred to a PVDF membrane. The transferred PVDF membrane was sealed with a 5% BSA solution in TBST at a room temperature for 1 h, then incubated overnight with the corresponding primary antibody at 4° C., washed with TBST, incubated with the secondary antibody at a room temperature for 2 h, and washed with TBST again.
(§9) Finally, an ECL chemiluminescent solution was added to make the membrane strip emit light, electrophoresis results were obtained by pressing, developing and fixing with photosensitive films, and the change trends of apoptosis-related proteins among different treatment groups were observed.

PARP = experiment: Apoptosis-related proteins by western blot, PARP in BEL-7402 cells; format: cell-based; conditions: BEL-7402 cells, 0, 50 and 100 nM, 24 h, FIG. 10 B
Description: as §7, §8, §9

Huh7 cells = experiment: Scratch test; format: cell-based; conditions: 50 nM, 24 and 48 h, serum-free medium; P<0.05; FIG. 11
Description: Huh7 cells in the logarithmic growth phase were taken and inoculated in a 24-well plate at 5×10^5 cells per well. After the cells were overgrown, a sterile pipette tip was used for scratching, the cells were washed 3 times with PBS after scratching, the scratched cells were removed, a serum-free medium containing 50 nM TPO was added to continue the culture for 24 and 48 h, and photographing was performed. The scratch photo was analyzed by Image J software, the scratch distance was calculated, and the scratch healing was evaluated.

C=CC(=O)O[C@@H]1[C@@]2(C(C)C)O[C@H]2[C@@H]2O[C@]23[C@]12O[C@H]2C[C@H]1C2=C(CC[C@@]13C)C(=O)OC2 [triptolide acrylate]
tumor volume (subcutaneous implanted tumor seen on skin surface) ([1]; administration group (especially the high-dose group) vs model group, dose-dependent, FIG. 5): significantly less than that of the model group | tumor volume of tumor tissues stripped after sacrifice ([1]; administration group vs model group, FIG. 6): less than that of the model group | fluorescence signals in the tumors of the nude mice ([1]; each dose group (100, 200, 400 μg/kg), intraperitoneal injection once a day for 13 days, compared with the model group, dose-dependent, FIG. 4): significantly weakened | fluorescence signal in the tumors of the nude mice ([1]; high-dose group (400 μg/kg), intraperitoneal injection once a day for 13 days, FIG. 4): weakened more obviously | protein expression quantity of p53 (p53; high-dose group (400 μg/kg)): significantly increase | protein expression quantity of p53 (p53; low-dose group (100 μg/kg)): no significant change | protein expression quantity of p53 (p53; middle-dose group (200 μg/kg)): no significant change | protein expression quantity of caspase-8 (caspase-8; high-dose group (400 μg/kg)): reduce | protein expression quantity of caspase-8 (caspase-8; low-dose group (100 μg/kg)): reduce | protein expression quantity of caspase-8 (caspase-8; middle-dose group (200 μg/kg)): significantly increase | protein expression quantity of caspase-3 (caspase-3 [2]; high-dose group (400 μg/kg)): significantly increase | protein expression quantity of caspase-3 (caspase-3 [2]; low-dose group (100 μg/kg)): reduce | protein expression quantity of caspase-3 (caspase-3 [2]; middle-dose group (200 μg/kg)): significantly increase | LDH activity of the culture supernatant of LO2 cells (LO2 cells): significantly lower than that of the TPL treatment group | inhibiting effect on proliferation (HepG2 liver cancer cells): significant inhibiting effect | inhibiting effect on proliferation (Hep3B liver cancer cells [3]): significant inhibiting effect | inhibiting effect on proliferation [4]: significant inhibiting effect | inhibiting effect on proliferation [5]: significant inhibiting effect | proportion of Annexin V and PI positive cells (induction of apoptosis) (Hep3B liver cancer cells [6]): significantly increased | proportion of Annexin V and PI positive cells (induction of apoptosis) [7]: significantly increased | cleavage of Caspase-3 (Caspase-3 [8]): significantly increased | cleavage of PARP (PARP): significantly increased | migration of Huh7 cells (scratch healing) (Huh7 cells): significantly inhibit

triptolide triol [TP-3-OH, reference compound]
LDH activity of the culture supernatant of LO2 cells (LO2 cells): significantly lower than that of the TPL treatment group | inhibiting effect on proliferation (HepG2 liver cancer cells): no obvious inhibiting effect | inhibiting effect on proliferation (Hep3B liver cancer cells [3]): no obvious inhibiting effect | inhibiting effect on proliferation [4]: no obvious inhibiting effect | inhibiting effect on proliferation [5]: no obvious inhibiting effect | proportion of Annexin V and PI positive cells (induction of apoptosis) (Hep3B liver cancer cells [6]): not obvious | proportion of Annexin V and PI positive cells (induction of apoptosis) [7]: not obvious
